Results from US12655145B2, “P2X3 modulators” (GlaxoSmithKline Intellectual Property (No. 3) Limited, priority 2020, dated 2026).

These compounds were tested against T1, P2X3 (Homo sapiens, UniProt P56373) (assay: P2X3 Antagonist Assay (FLIPR calcium, Fluo-8, HEK293 cells transfected with human ion channel cDNAs, αβ-meATP stimulation)). Details: @ 1 μM, antagonist mode, αβ-meATP 3 μM.
T1 construct: expressed in transfected cells; host or cells: HEK293
T1 sequence (P56373 1-397): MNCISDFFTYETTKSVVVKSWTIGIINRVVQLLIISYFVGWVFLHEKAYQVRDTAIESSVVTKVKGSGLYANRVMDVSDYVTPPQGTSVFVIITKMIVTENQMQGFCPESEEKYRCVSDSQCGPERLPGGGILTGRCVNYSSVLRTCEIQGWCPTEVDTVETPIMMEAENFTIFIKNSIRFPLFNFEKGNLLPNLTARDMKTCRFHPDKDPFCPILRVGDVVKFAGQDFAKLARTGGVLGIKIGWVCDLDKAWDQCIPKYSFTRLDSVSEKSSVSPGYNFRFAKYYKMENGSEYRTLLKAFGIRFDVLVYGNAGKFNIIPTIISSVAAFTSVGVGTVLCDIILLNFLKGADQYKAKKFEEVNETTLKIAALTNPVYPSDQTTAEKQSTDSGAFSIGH
Type: cell-based
Protocol: Example 59: P2X3 Antagonist Assay
HEK293 were transiently or stably transfected with human ion channel cDNAs as indicated in section 1. Stable transfectants were selected by coexpression with the antibiotic-resistance gene(s) incorporated into the expression plasmid(s). Selection pressure was maintained by including selection antibiotics in the culture medium. HEK293 cells were cultured in Dulbecco's Modified Eagle Medium/Nutrient Mixture F-12 (D-MEM/F-12) supplemented with 10% fetal bovine serum, 100 U/mL penicillin G sodium, 100 J·Lg/mL streptomycin sulfate and appropriate selection antibiotics.
The effect of each test article to act as an antagonist was evaluated. Each test article was evaluated at eight (8) concentrations (0.001, 0.003, 0.01, 0.03, 0.1, 0.3, 1 and 3 μM, n=3) with 4 replicates for each concentration. Experiments were performed with the FLIPR calcium sensitive dye kit (Fluo-8 dye, AAT, Bioquest) according to the manufacturer's instructions. • Dye-loading: Growth media will be removed and add 20 μL of Mg^++-free HBPS containing Fluo-8 for 30 min at 37° C. • Preincubation (FLIPR step 1): Adding 5× (5 μL) test, vehicle, or control article solutions in Mg^+-free HBPS to each well for 20 minutes at room temperature, protected from light. • Stimulation (FLIPR step 2): After pre-incubation, cells will be stimulated with 6× (5 μL) αβ-meATP at final concentration of 3 μM prepared in Mg^++-free HBPS. • Non-Specific Calcium Influx (FLIPR step 3): 5 minutes after stimulation solution addition, non-specific calcium influx will be activated by adding 7×(5 μL) ionomycin at a final concentration of 5 μM. Fluorescence will be recorded continuously during FLIPR steps 2 and 3. • Positive Control Antagonist: PPADS (1 mM).
Data acquisition was performed via the FLIPRControl software that is supplied with the FLIPR System (MDS-AT) and data was analyzed using Microsoft Excel2003 (Microsoft Corp., Redmond, WA).

Row | P2X3 IC50 column, given as % @ 1 μM [% @ 1 μM] | SMILES
1 | 23 | CNC(=O)c1cc(F)c(-c2nc3cc(C)ccn3c2CC2COCCN(C(=O)OC)C2)c(F)c1 (single isomer, unassigned) [A16 (Peak 2), methyl 6-((2-(2,6-difluoro-4-(methylcarbamoyl)phenyl)-7-meth-ylimidazo[1,2-a]pyridin-3-yl)methyl)-1,4-oxazepane-4-carboxylate]
2 | 17 | CNC(=O)c1cc(F)c(-c2nc3cc(C)ccn3c2CC2CCCC(NC(C)=O)C2)c(F)c1 (single isomer, unassigned) [trans-A22 (Peak 2), 4-(3-((3-acetamidocyclohexyl)methyl)-7-methylimidazo[1,2-a]pyridin-2-yl)-3,5-difluoro-N-methylbenzamide]
3 | 21 | CNC(=O)c1cc(F)c(-c2nc3cc(C)ccn3c2CC2CCCCN(C(=O)OC)C2)c(F)c1 (single isomer, unassigned) [A17 (Peak 2), methyl 3-((2-(2,6-difluoro-4-(methylcarbamoyl)phenyl)-7-methylimidazo[1,2-a]pyridin-3-yl)methyl)azepane-1-carboxylate]

Same assay, conditions: @ 1 μM, antagonist mode, αβ-meATP 3 μM, read-out: P2X3 IC50 column, given as % @ 1 μM

Row | SMILES | inhibition at 1 µM [%]
4 | CNC(=O)c1ccc(-c2nc3cc([S+](C)[O-])ccn3c2C[C@H]2CN(C(=O)OC)CCO2)c(F)c1 (single isomer, unassigned) [A47 (Peak 1)] | 5

Same assay, conditions: HEK293, @ 1 μM, antagonist mode, αβ-meATP 3 μM, read-out: P2X3 IC50 column, given as % @ 1 μM

Row | inhibition at 1 µM [%] | SMILES
5 | 39 | CNC(=O)c1cc(F)c(-c2nc3cc(C)ccn3c2CC2CN(C(=O)OC)CCCO2)c(F)c1 (single isomer, unassigned) [A14 (Peak 1), methyl 2-((2-(2,6-difluoro-4-(methylcarbamoyl)phenyl)-7-methylimidazo[1,2-a]pyridin-3-yl)methyl)-1,4-oxazepane-4-carboxylate]
6 | 10 | CNC(=O)c1cc(F)c(-c2[nH]c3cc(C)ccc3c2C[C@H]2CN(C(=O)OC)CCO2)c(F)c1 [Compound A24, methyl (S)-2-((2-(2,6-difluoro-4-(methylcarbamoyl)phenyl)6-methyl-1H-indol-3-yl)methyl)morpholine-4-carboxylate]
7 | 50 | CNC(=O)c1ccc(-c2nc3cc(C4CC4)ccn3c2C[C@H]2CN(C(=O)OC)CCO2)c(F)c1 [Compound A52, methyl (S)-2-((7-cyclopropyl-2-(2-fluoro-4-(methylcarbamoyl)-phenyl)imidazo[1,2-a]pyridin-3-yl)methyl)morpholine-4-carboxylate]
8 | 20 | CNC(=O)c1cc(F)c(-c2nc3cc(C)ccn3c2CC2CCC(NC(C)=O)CC2)c(F)c1 (stereo not drawn) [cis-A21, 4-(3-((4-acetamidocyclohexyl)methyl)-7-methylimidazo[1,2-a]pyridin-2-yl)-3,5-difluoro-N-methylbenzamide]

Same assay, conditions: antagonist mode, αβ-meATP 3 μM

Row | SMILES | IC50 [nM]
9 | CNC(=O)c1cc(F)c(-c2nc3cc(C)ccn3c2CC2CCN(C(=O)OC)CC2)c(F)c1 [Compound A20, methyl 4-((2-(2,6-difluoro-4-(methylcarbamoyl)phenyl)-7-methylimidazo[1,2-a]pyridin-3-yl)methyl)piperidine-1-carboxylate] | < 100
10 | CNC(=O)c1cc(F)c(-c2[nH]c3cc(C)cnc3c2C[C@H]2CN(C(=O)OC)CCO2)c(F)c1 [Compound A26, methyl (S)-2-((2-(2,6-difluoro-4-(methylcarbamoyl)phenyl)-6-methyl-1H-pyrrolo[3,2-b]pyridin-3-yl)methyl)morpholine-4-carboxylate] | > 1000
11 | CNC(=O)c1cc(F)c(-c2nc3cc(C)ccn3c2CC2CN(C(=O)OC)CCCO2)c(F)c1 (single isomer, unassigned) [A14 (Peak 2), methyl 2-((2-(2,6-difluoro-4-(methylcarbamoyl)phenyl)-7-methylimidazo[1,2-a]pyridin-3-yl)methyl)-1,4-oxazepane-4-carboxylate] | < 100
12 | COC(=O)N1CCO[C@@H](Cc2c(-c3ccc(C(=O)N4CC[C@H](O)C4)cc3F)nc3cc(Cl)ccn23)C1 [Compound A68, methyl (S)-2-((7-chloro-2-(2-fluoro-4-((S)-3-hydroxypyrrolidine-1-carbonyl)phenyl)imidazo[1,2-a]pyridin-3-yl)methyl)morpholine-4-carboxylate] | 100 to 1000
13 | COC(=O)N1CCO[C@@H](Cc2c(-c3ccc(C(=O)N4CCCC4)cc3F)nc3cc(Cl)ccn23)C1 [Compound A67, methyl (S)-2-((7-chloro-2-(2-fluoro-4-(pyrrolidine-1-carbonyl)-phenyl)imidazo[1,2-a]pyridin-3-yl)methyl)morpholine-4-carboxylate] | 100 to 1000

Other lines, results leading:

Row | IC50 [nM] | SMILES
14 | > 1000 | CNC(=O)c1ccc(-c2nc3cc(C(O)C(F)(F)F)ccn3c2C[C@H]2CN(C(=O)OC)CCO2)c(F)c1 (single isomer, unassigned) [A46 (Peak 1)]
15 | < 100 | CNC(=O)c1cc(F)c(-c2nc3cc(C(F)F)ccn3c2C[C@H]2CN(C(=O)OC)CCO2)c(F)c1 [Compound A4, methyl (S)-2-((2-(2,6-difluoro-4-(methylcarbamoyl)phenyl)-7-(di-fluoromethyl)imidazo[1,2-a]pyridin-3-yl)methyl)morpholine-4-carboxylate]
16 | 100 to 1000 | CNC(=O)c1cc(F)c(-c2nc3cc(F)ccn3c2C[C@H]2CN(C(=O)OC)CCO2)c(F)c1 [Compound A1, methyl (S)-2-((2-(2,6-difluoro-4-(methylcarbamoyl)phenyl)-7-fluoroimidazo[1,2-a]pyridin-3-yl)methyl)morpholine-4-carboxylate]
17 | < 100 | CNC(=O)c1ccc(-c2nc3cc(C(F)F)ccn3c2C[C@H]2CN(C(=O)OC)CCO2)c(F)c1 [Compound A42, methyl (S)-2-((7-(difluoromethyl)-2-(2-fluoro-4-(methylcarbamoyl)phenyl)imidazo[1,2-a]pyridin-3-yl)methyl)morpholine-4-carboxylate]
18 | 100 to 1000 | CNC(=O)c1ccc(-c2nc3cc(CF)ccn3c2C[C@H]2CN(C(=O)OC)CCO2)c(F)c1 [Compound A49, methyl (S)-2-((2-(2-fluoro-4-(methylcarbamoyl)phenyl)-7-(fluoromethyl)imidazo[1,2-a]pyridin-3-yl)methyl)morpholine-4-carboxylate]
19 | < 100 | CNC(=O)c1cc(C)c(-c2nc3cc(Cl)ccn3c2C[C@H]2CN(C(=O)OC)CCO2)cc1F [Compound A13, methyl (S)-2-((7-chloro-2-(5-fluoro-2-methyl-4-(methylcarbamoyl)phenyl)imidazo[1,2-a]pyridin-3-yl)methyl)morpholine-4-carboxylate]
20 | > 1000 | CNC(=O)c1ccc(-c2nc3cc(C(O)C(F)(F)F)ccn3c2C[C@H]2CN(C(=O)OC)CCO2)c(F)c1 (single isomer, unassigned) [A46 (Peak 2)]
21 | 100 to 1000 | COC(=O)N1CCO[C@@H](Cc2c(-c3ccc(C(=O)N(C)C)cc3F)nc3cc(Cl)ccn23)C1 [Compound A65, methyl (S)-2-((7-chloro-2-(4-(dimethylcarbamoyl)-2-fluoro-phenyl)imidazo[1,2-a]pyridin-3-yl)methyl)morpholine-4-carboxylate]
22 | 100 to 1000 | CNC(=O)c1ccc(-c2nc3cc(Cl)ccn3c2C[C@H]2CN(C(C)=O)CCO2)c(F)c1 [Compound A88, (S)-4-(3-((4-acetylmorpholin-2-yl)methyl)-7-chloroimidazo[1,2-a]pyridin-2-yl)-3-fluoro-N-methylbenzamide]
23 | 100 to 1000 | CCC(=O)N1CCO[C@@H](Cc2c(-c3ccc(C(=O)NC)cc3F)nc3cc(Cl)ccn23)C1 [Compound A89, (S)-4-(7-chloro-3-((4-propionylmorpholin-2-yl)methyl)imidazo-[1,2-a]pyridin-2-yl)-3-fluoro-N-methylbenzamide]
24 | < 100 | CNC(=O)c1cc(F)c(-c2nc3cc(Cl)ccn3c2C[C@H]2CN(C(=O)OC)CCO2)c(F)c1 [Compound A2, methyl (S)-2-((7-chloro-2-(2,6-difluoro-4-(methyl-carb-amoyl)-phenyl)-imidazo[1,2-a]pyridin-3-yl)methyl)morpholine-4-carboxylate]
25 | < 100 | CNC(=O)c1ccc(-c2nc3cc(C)ccn3c2C[C@H]2CN(C(=O)OC)CCO2)c(F)c1 [Compound A10, methyl (S)-2-((2-(2-fluoro-4-(methylcarbamoyl)phenyl)-7-methylimidazo[1,2-a]pyridin-3-yl)methyl)morpholine-4-carboxylate]
